Results from patent US9101556B2, “Therapeutic agent and therapeutic device for alleviating ischemia-reperfusion injury” (priority 2010, dated 2015).

Tested on: myocardial ischemia-reperfusion injury
Test: Murine myocardial ischemia-reperfusion injury model (60 min LAD ligation, then reperfusion); infarcted area by Evans blue/TTC staining
Type: in vivo, C57BL/6J male mice
Details: inhalation from 5 min before until 30 min after start of reperfusion; measured 24 h after reperfusion; vs control (oxygen only); t-test p<0.01
Description: 10-week old C57BL/6J male mice were used for the experiment. […] However, during this period, the animals were allowed to take ad libitum the antibiotic-containing water. […] After intraperitoneal administration of pentobarbital as an anesthetic and tracheal intubation, each animal was connected to an animal ventilator for respiration care. The left thorax was shaven and disinfected to carry out thoracotomy, and the left anterior descending coronary artery was ligated with a silk thread to maintain a state of ischemia for 60 minutes. The silk thread used for ligation was then released to cause reperfusion. Reperfusion was confirmed by the restart of blood flow. After confirming reperfusion, the thorax was closed, and ventilator care was continued until the animal awakened from anesthesia. After awakening from anesthesia, the tube was removed, and the animal received care in indoor air. […] Based on the image which was obtained, each heart section was measured for the area of the LV (left ventricle), the AAR (area at risk=the ischemic area), and the area of Nec (necrosis; the infarcted area) using ImageJ image processing software to calculate the value of AAR/LV (proportion of the ischemic area in the left ventricle) and that of Nec/AAR (proportion of the infarcted area in the ischemic area). […]

Row | Compound | Nec/AAR (proportion of the infarcted area in the ischemic area) compared with the control group
1 | [HH] [hydrogen] | decreased
2 | nitrogen monoxide | decreased
